Test results from US20050096327A1, “Novel norepinephrine reuptake inhibitors for the treatment of central nervous system disorders” (priority 2003, published 2005).

Legend:
[1] = target: T1, human serotonin transporter (Homo sapiens, UniProt P31645); experiment: hSERT receptor binding ([125I]-RTI-55, membranes of transfected HEK-293 cells); details: 50 pM [125I]-RTI-55, 90 min room temperature; IC50 converted by Cheng-Prusoff
T1 construct: host or cells: HEK-293
Method in brief: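 Membranes of HEK-293 cells expressing human SERT incubated 90 min at room temperature with 50 pM [125I]-RTI-55 and compound (10^−5 to 10^−12 M) in Krebs-HEPES, pH 7.4. Nonspecific binding defined with 10 μM citalopram; IC50 converted to Ki by Cheng-Prusoff.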

[2] = target: T2, human norepinephrine transporter (Homo sapiens, UniProt P23975); experiment: hNET receptor binding ([125I]-RTI-55, membranes of transfected HEK-293 cells); details: 50 pM [125I]-RTI-55, 90 min room temperature; IC50 converted by Cheng-Prusoff
T2 construct: host or cells: HEK-293
T2 sequence (P23975 whole entry): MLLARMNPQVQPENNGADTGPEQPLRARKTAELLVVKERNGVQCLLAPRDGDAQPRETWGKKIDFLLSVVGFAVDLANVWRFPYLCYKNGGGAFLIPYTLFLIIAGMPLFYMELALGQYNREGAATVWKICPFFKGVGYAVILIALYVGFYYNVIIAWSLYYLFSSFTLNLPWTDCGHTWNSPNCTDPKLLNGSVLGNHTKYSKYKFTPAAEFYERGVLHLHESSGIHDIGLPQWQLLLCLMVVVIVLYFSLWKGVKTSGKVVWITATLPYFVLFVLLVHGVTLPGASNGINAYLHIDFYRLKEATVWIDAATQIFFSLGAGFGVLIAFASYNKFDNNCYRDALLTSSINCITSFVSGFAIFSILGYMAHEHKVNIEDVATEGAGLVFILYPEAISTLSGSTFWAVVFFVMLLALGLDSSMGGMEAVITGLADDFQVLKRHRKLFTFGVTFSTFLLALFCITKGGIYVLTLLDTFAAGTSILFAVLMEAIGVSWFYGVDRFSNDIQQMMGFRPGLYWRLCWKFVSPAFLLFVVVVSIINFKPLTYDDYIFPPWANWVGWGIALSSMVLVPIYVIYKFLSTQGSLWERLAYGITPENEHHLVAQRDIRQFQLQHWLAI
Method in brief: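 Competition binding on membranes from HEK-293 cells transfected with human NET, using 50 pM [125I]-RTI-55 in Krebs-HEPES pH 7.4, drug 10^−5 to 10^−12 M in duplicate, 90 min at room temperature, filtration. Nonspecific binding defined with 10 μM desipramine; IC50 converted to Ki by Cheng-Prusoff.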

T1 sequence (P31645 whole entry): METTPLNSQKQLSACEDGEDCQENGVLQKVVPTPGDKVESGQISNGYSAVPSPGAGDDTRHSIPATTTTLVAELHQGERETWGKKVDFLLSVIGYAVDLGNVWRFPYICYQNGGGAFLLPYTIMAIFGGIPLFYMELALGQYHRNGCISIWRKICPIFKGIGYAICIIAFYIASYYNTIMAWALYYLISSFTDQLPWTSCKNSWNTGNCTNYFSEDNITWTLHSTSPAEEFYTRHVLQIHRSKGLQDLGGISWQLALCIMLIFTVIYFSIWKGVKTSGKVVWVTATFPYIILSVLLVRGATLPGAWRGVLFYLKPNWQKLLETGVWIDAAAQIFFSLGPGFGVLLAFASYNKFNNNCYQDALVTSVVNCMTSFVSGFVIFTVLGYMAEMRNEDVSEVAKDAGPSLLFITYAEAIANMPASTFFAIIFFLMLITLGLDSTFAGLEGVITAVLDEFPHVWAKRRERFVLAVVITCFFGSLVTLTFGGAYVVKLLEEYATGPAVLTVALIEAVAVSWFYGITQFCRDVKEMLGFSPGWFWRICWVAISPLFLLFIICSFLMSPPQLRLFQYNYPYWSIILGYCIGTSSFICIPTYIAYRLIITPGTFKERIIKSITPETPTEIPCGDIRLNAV

Structure (SMILES) | Ki [1] | Ki [2] | melting point
Cl.c1ccc(-c2nc(N3CCCNCC3)nc3ccccc23)cc1 [Example 7, 2-[1,4]Diazepan-1-yl-4-phenyl-quinazoline hydrochloride] | – | 2 nM | 230 to 231 °C
CN1CC2CCCC(C1)N2c1nc(-c2ccccc2)c2ccccc2n1 [Example 5, 2-(3-Methyl-3,9-diaza-bicyclo[3.3.1]non-9-yl)-4-phenyl-quinazoline] | – | 42 nM | 118 to 121 °C
Cl.N[C@@H]1CCN(c2nc(-c3ccccc3)c3ccccc3n2)C1 [Example 16, (R)-(−)1-(4-Phenyl-quinazolin-2-yl)-pyrrolidin-3-yl-amine hydrochloride] | – | 31 nM | 261 to 265 °C
CC(C)c1nc(N2CCNCC2)nc2ccccc12.Cl [Example 6, 4-Isopropyl-2-piperazin-1-yl-quinazoline hydrochloride] | – | 16.5 nM | 253 to 254 °C
COC(=O)C1(c2nc(-c3ccccc3)c3ccccc3n2)CCCNC1.Cl (stereo not shown) [Example 52, 3-(4-Phenyl-quinazolin-2-yl)-piperidine-3-carboxylic acid methyl ester hydrochloride] | – | 53.4 nM | 143 to 145 °C
Cl.c1ccc(-c2nc(N3CC4CCCC(C3)N4)nc3ccccc23)cc1 [Example 32, 2-(3,9-Diaza-bicyclo[3.3.1]non-3-yl)-4-phenyl-quinazoline hydrochloride] | – | 38.5 nM | > 300 °C
CN1CCN(c2nc(-c3ccc(F)cc3)c3ccccc3n2)CC1 [Example 25, 4-(4-Fluoro-phenyl)-2-(4-methyl-piperazin-1-yl)-quinazoline] | – | 82 nM | 130 to 131 °C
c1ccc(-c2nc(N3C4CCC3CNC4)nc3ccccc23)cc1 [Example 56, 2-(3,8-Diaza-bicyclo[3.2.1]oct-8-yl)-4-phenyl-quinazoline] | – | 5 nM | 278 to 280 °C
Cl.N[C@H]1CCN(c2nc(-c3ccccc3)c3ccccc3n2)C1 [Example 14, (S)-(+)-1-(4-Phenyl-quinazolin-2-yl)-pyrrolidin-3-ylamine hydrochloride] | – | 3.7 nM | 274 to 275 °C
COC(=O)C1(c2nc(-c3ccccc3F)c3ccccc3n2)CCNCC1.Cl [Example 51, 4-[4-(2-Fluoro-phenyl)-quinazolin-2-yl]-piperidine-4-carboxylic acid methyl ester hydrochloride] | – | 15.1 nM | 210 to 211 °C

Other lines, results leading:

Ki [1] | Ki [2] | melting point | Structure (SMILES)
12 nM | 1.7 nM | 276 to 277 °C | Cl.Fc1ccccc1-c1nc(N2CCNCC2)nc2ccccc12 [Example 20, 4-(2-Fluoro-phenyl)-2-piperazin-1-yl-quinazoline hydrochloride]
– | 29.7 nM | 101 to 122 °C | CN1CCN(c2nc(-c3ccccc3)c3ccccc3n2)CC1 [Example 1, 2-(4-Methyl-piperazin-1-yl)-4-phenyl-quinazoline]
– | 12 nM | 123 to 124 °C | CN1CCN(c2nc(-c3ccccc3F)c3ccccc3n2)CC1 [Example 18, 4-(2-Fluoro-phenyl)-2-(4-methyl-piperazin-1-yl)-quinazoline]
– | 34.9 nM | 134 to 135 °C | CN1CCN(c2nc(-c3cccc(F)c3)c3ccccc3n2)CC1 [Example 26, 4-(3-Fluoro-phenyl)-2-(4-methyl-piperazin-1-yl)-quinazoline]
– | 34.1 nM | 91 to 94 °C | Cc1ccccc1-c1nc(N2CCN(C)CC2)nc2ccccc12 [Example 4, 2-(4-Methyl-piperazin-1-yl)-4-o-tolyl-quinazoline]
– | 80.5 nM | 86 to 88 °C | Cl.NCCC1CCCN(c2nc(-c3ccccc3)c3ccccc3n2)C1 (stereo not shown) [Example 11, 2-[1-(4-Phenyl-quinazolin-2-yl)-piperidin-3-yl]-ethylamine hydrochloride]
– | 5.5 nM | 150 to 161 °C | C[C@@H]1CNCCN1c1nc(-c2ccccc2)c2ccccc2n1.Cl [Example 30, (R)-(−)-2-(2-Methyl-piperazin-1-yl)-4-phenyl-quinazoline hydrochloride]
– | 95.5 nM | > 300 °C | Cl.NC1CCN(c2nc(-c3ccccc3)c3ccccc3n2)CC1 [Example 12, 1-(4-Phenyl-quinazolin-2-yl)-piperidin-4-ylamine hydrochloride]
– | 22 nM | 221 to 222 °C | CC1CN(c2nc(-c3ccccc3)c3ccccc3n2)C(C)CN1.Cl (stereo not shown) [Example 9, 2-(2,5-Dimethyl-piperazin-1-yl)-4-phenyl-quinazoline hydrochloride]
– | 18 nM | 288 to 289 °C | Cl.N[C@H]1CCCN(c2nc(-c3ccccc3F)c3ccccc3n2)C1 [Example 40, (S)-(+)-1-[4-(2-Fluoro-phenyl)-quinazolin-2-yl]-piperidin-3-ylamine hydrochloride]
– | 77.3 nM | 85 to 87 °C | Cc1ccc(-c2nc(N3CCN(C)CC3)nc3ccccc23)cc1 [Example 2, 2-(4-Methyl-piperazin-1-yl)-4-p-tolyl-quinazoline]
– | 2.7 nM | 147 to 148 °C | Fc1ccc2c(-c3ccccc3F)nc(N3CCNCC3)nc2c1 [Example 59, 7-Fluoro-4-(2-fluoro-phenyl)-2-piperazin-1-yl-quinazoline]
– | 4 nM | 203 to 206 °C | Fc1cccc(-c2nc(N3CCCNCC3)nc3ccccc23)c1F [Example 57, 2-[1,4]Diazepan-1-yl-4-(2,3-difluoro-phenyl)-quinazoline]
– | 41 nM | 107 to 108 °C | CC1CN(c2nc(-c3ccccc3)c3ccccc3n2)CCN1 (stereo not shown) [Example 54, 2-(3-Methyl-piperazin-1-yl)-4-phenyl-quinazoline]
